# Assay results taken from ChEMBL document CHEMBL1146649, “New highly active taxoids from 9 beta-dihydrobaccatin-9,10-acetals. Part 5” (2004).
# Legend:
# [1] = test system: Mus musculus; experiment: Maximum rate of body weight loss after intravenous administration of 11.9 mg/kg of compound in mice; <0 indicates no weight loss; format: functional
# [2] = test system: Mus musculus; experiment: Maximum rate of body weight loss after intravenous administration of 17.8 mg/kg of compound in mice; format: functional
# [3] = test system: Mus musculus; experiment: Maximum rate of body weight loss after peroral administration of 17.8 mg/kg of compound in mice; format: functional; settings: route oral
# [4] = test system: Mus musculus; experiment: Maximum rate of body weight loss after peroral administration of 26.7 mg/kg of compound in mice; format: functional; settings: route oral
# [5] = test system: Mus musculus; experiment: Effective dose of intravenously administered compound against B16 melanoma BL6 cells implanted into mice; range is 11.9-17.8; format: functional; settings: B16, iv
# [6] = test system: Mus musculus; experiment: Maximum rate of body weight loss after peroral administration of 7.9 mg/kg of compound in mice; format: functional; settings: route oral
# [7] = test system: B16; experiment: Antitumor activity of 11.9 mg/kg of intravenously administered compound against B16 melanoma BL6 cells implanted into mice, value reported is percent compared to control; format: functional, Mus musculus; settings: route intravenous
# [8] = test system: B16; experiment: Antitumor activity of 11.9 mg/kg of perorally administered compound against B16 melanoma BL6 cells implanted into mice, value reported is percent compared to control; format: functional, Mus musculus; settings: route oral
# [9] = test system: Mus musculus; experiment: Antitumor activity of 17.8 mg/kg of intravenously administered compound against B16 melanoma BL6 cells implanted into mice, value reported is percent compared to control; format: functional; settings: route intravenous
# [10] = test system: B16; experiment: Antitumor activity of 17.8 mg/kg of perorally administered compound against B16 melanoma BL6 cells implanted into mice, value reported is percent compared to control; format: functional, Mus musculus; settings: route oral
# [11] = test system: Mus musculus; experiment: Antitumor activity of 26.7 mg/kg of perorally administered compound against B16 melanoma BL6 cells implanted into mice, value reported is percent compared to control; format: functional; settings: route oral
# [12] = test system: Mus musculus; experiment: Antitumor activity of 7.9 mg/kg of intravenously administered compound against B16 melanoma BL6 cells implanted into mice, value reported is percent compared to control; format: functional; settings: route intravenous
# [13] = test system: Mus musculus; experiment: Antitumor activity of 7.9 mg/kg of perorally administered compound against B16 melanoma BL6 cells implanted into mice, value reported is percent compared to control; format: functional; settings: route oral
# [14] = test system: Mus musculus; experiment: Maximum rate of body weight loss after intravenous administration of 7.9 mg/kg of compound in mice; format: functional
# [15] = test system: Mus musculus; experiment: Maximum rate of body weight loss after peroral administration of 11.9 mg/kg of compound in mice; <0 indicates no weight loss; format: functional; settings: route oral
# [16] = test system: Mus musculus; experiment: Effective dose of perorally administered compound against B16 melanoma BL6 cells implanted into mice; range is 11.9-17.8; format: functional; settings: B16, po
# [17] = test system: Mus musculus; experiment: Number of mice died at 11.9 mg/kg of intravenous dose, among the total 6 mice tested; format: functional
# [18] = test system: Mus musculus; experiment: Number of mice died at 11.9 mg/kg of peroral dose, among the total 6 mice tested; format: functional; settings: route oral
# [19] = test system: Mus musculus; experiment: Number of mice died at 17.8 mg/kg of intravenous dose among the total 6 mice tested; format: functional
# [20] = test system: Mus musculus; experiment: Number of mice died at 17.8 mg/kg of peroral dose among the total 6 mice tested; format: functional; settings: route oral
# [21] = test system: Mus musculus; experiment: Number of mice died at 26.7 mg/kg of intravenous dose of compound among the total 6 mice tested; format: functional
# [22] = test system: Mus musculus; experiment: Number of mice died at 26.7 mg/kg of peroral dose of compound among the total 6 mice tested; format: functional; settings: route oral
# [23] = test system: Mus musculus; experiment: Number of mice died at 7.9 mg/kg of intravenous dose of compound among the total 6 mice tested; format: functional
# [24] = test system: Mus musculus; experiment: Number of mice died at 7.9 mg/kg of peroral dose of compound among the total 6 mice tested; format: functional; settings: route oral
# [25] = test system: P388; experiment: Concentration required to inhibit mouse P388 cell line growth by 50% at 72 hr continuous exposure; format: functional; settings: P388, 72 h
# [26] = test system: PC-6; experiment: Concentration required to inhibit human PC-6 cell line growth by 50% at 72 hr continuous exposure; format: functional; settings: PC-6, 72 h
# [27] = test system: PC-6; experiment: Concentration required to inhibit human PC-6/VP1-1 cell line growth by 50% at 72 hr exposure; format: functional; settings: PC-6, 72 h
# [28] = test system: PC-12; experiment: Concentration required to inhibit human PC-12 cell line growth by 50% at 72 hr continuous exposure; format: functional; settings: PC-12, 72 h
# [29] = test system: PC-6; experiment: Concentration required to inhibit human PC-6/VCR29-9 cell line growth by 50% at 72 hr exposure; format: functional; settings: PC-6, 72 h
# [30] = test system: Mus musculus; experiment: Maximum rate of body weight loss after intravenous administration of 12.0 mg/kg of compound in mice; <0 indicates no body weight loss; format: functional
# [31] = test system: Mus musculus; experiment: Maximum rate of body weight loss after peroral administration of 12.0 mg/kg of compound in mice; <0 indicates no body weight loss; format: functional; settings: route oral
# [32] = test system: Mus musculus; experiment: Maximum rate of body weight loss after peroral administration of 18.0 mg/kg of compound in mice; format: functional; settings: route oral
# [33] = test system: Mus musculus; experiment: Maximum rate of body weight loss after peroral administration of 27.0 mg/kg of compound in mice; format: functional; settings: route oral
# [34] = test system: Mus musculus; experiment: Maximum rate of body weight loss after peroral administration of 8.0 mg/kg of compound in mice; <0 indicates no body weight loss; format: functional; settings: route oral
# [35] = test system: Mus musculus; experiment: Antitumor activity of 12.0 mg/kg of intravenously administered compound against B16 melanoma BL6 cells implanted into mice, value reported is percent compared to control; format: functional; settings: route intravenous
# [36] = test system: Mus musculus; experiment: Antitumor activity of 12.0 mg/kg of perorally administered compound against B16 melanoma BL6 cells implanted into mice, value reported is percent compared to control; format: functional; settings: route oral
# [37] = test system: Mus musculus; experiment: Antitumor activity of 18.0 mg/kg of intravenously administered compound against B16 melanoma BL6 cells implanted into mice, value reported is percent compared to control; format: functional; settings: route intravenous
# [38] = test system: Mus musculus; experiment: Antitumor activity of 18.0 mg/kg of perorally administered compound against B16 melanoma BL6 cells implanted into mice, value reported is percent compared to control; format: functional; settings: route oral
# [39] = test system: Mus musculus; experiment: Antitumor activity of 27.0 mg/kg of perorally administered compound against B16 melanoma BL6 cells implanted into mice, value reported is percent compared to control; format: functional; settings: route oral
# [40] = test system: Mus musculus; experiment: Antitumor activity of 5.3 mg/kg of intravenously administered compound against B16 melanoma BL6 cells implanted into mice, value reported is percent compared to control; format: functional; settings: route intravenous
# [41] = test system: Mus musculus; experiment: Antitumor activity of 8.0 mg/kg of intravenously administered compound against B16 melanoma BL6 cells implanted into mice, value reported is percent compared to control; format: functional; settings: route intravenous
# [42] = test system: Mus musculus; experiment: Antitumor activity of 8.0 mg/kg of perorally administered compound against B16 melanoma BL6 cells implanted into mice, value reported is percent compared to control; format: functional; settings: route oral
# [43] = test system: Mus musculus; experiment: Maximum rate of body weight loss after intravenous administration of 18.0 mg/kg of compound in mice; format: functional
# [44] = test system: Mus musculus; experiment: Maximum rate of body weight loss after intravenous administration of 5.3 mg/kg of compound in mice; <0 indicates no body weight loss; format: functional
# [45] = test system: Mus musculus; experiment: Maximum rate of body weight loss after intravenous administration of 8.0 mg/kg of compound in mice; <0 indicates no body weight loss; format: functional
# [46] = test system: Mus musculus; experiment: Effective dose of intravenously administered compound against B16 melanoma BL6 cells implanted into mice; range is 5.3-18.0; format: functional; settings: B16, iv
# [47] = test system: Mus musculus; experiment: Effective dose of perorally administered compound against B16 melanoma BL6 cells implanted into mice; range is 12.0-27.0; format: functional; settings: B16, po
# [48] = test system: Mus musculus; experiment: Number of mice died at 12.0 mg/kg of intravenous dose of compound among the total 6 mice tested; format: functional
# [49] = test system: Mus musculus; experiment: Number of mice died at 12.0 mg/kg of peroral dose of compound among the total 6 mice tested; format: functional; settings: route oral
# [50] = test system: Mus musculus; experiment: Number of mice died at 18.0 mg/kg of intravenous dose of compound among the total 6 mice tested; format: functional
# [51] = test system: Mus musculus; experiment: Number of mice died at 18.0 mg/kg of peroral dose of compound among the total 6 mice tested; format: functional; settings: route oral
# [52] = test system: Mus musculus; experiment: Number of mice died at 27.0 mg/kg of peroral dose of compound among the total 6 mice tested; format: functional; settings: route oral
# [53] = test system: Mus musculus; experiment: Number of mice died at 5.3 mg/kg of intravenous dose of compound among the total 6 mice tested; format: functional
# [54] = test system: Mus musculus; experiment: Number of mice died at 8.0 mg/kg of intravenous dose of compound among the total 6 mice tested; format: functional
# [55] = test system: Mus musculus; experiment: Number of mice died at 8.0 mg/kg of peroral dose of compound among the total 6 mice tested; format: functional; settings: route oral
structure (smiles),measurement,setting,value
CC(=O)O[C@@]12CO[C@@H]1CC[C@@]1(C)[C@@H]3O[C@H](CN4CCOCC4)O[C@@H]3C3=C(C)[C@@H](OC(=O)[C@H](O)[C@@H](NC(=O)OC(C)(C)C)c4cccc(F)n4)C[C@@](O)([C@@H](OCc4ccccc4)[C@@H]12)C3(C)C,BWLmax,[1],<0%
same,BWLmax,[2],11.9%
same,BWLmax,[3],2.2%
same,BWLmax,[4],16.6%
same,ED50,[5],17.8 mg/kg
same,BWLmax,[6],0.8%
same,IR,[7],85.7%
same,IR,[8],65.9%
same,IR,[9],94.7%
same,IR,[10],88.5%
same,IR,[11],97.4%
same,IR,[12],28.6%
same,IR,[13],-16.3%
same,BWLmax,[14],0.3%
same,BWLmax,[15],<0%
same,ED50,[16],17.8 mg/kg
same,Mortality,[17],0
same,Mortality,[18],0
same,Mortality,[19],0
same,Mortality,[20],0
same,Mortality,[21],6
same,Mortality,[22],1
same,Mortality,[23],0
same,Mortality,[24],0
same,GI50,[25],0.2 ng/mL
same,GI50,[26],0.29 ng/mL
same,GI50,[27],13.7 ng/mL
same,GI50,[28],0.14 ng/mL
same,GI50,[29],0.96 ng/mL
CC(=O)O[C@@]12CO[C@@H]1C[C@H](O)[C@@]1(C)[C@@H]3OC(CN4CCOCC4)O[C@@H]3C3=C(C)[C@@H](OC(=O)[C@H](O)[C@@H](NC(=O)OC(C)(C)C)c4ccccn4)C[C@@](O)([C@@H](OCc4ccccc4)[C@H]21)C3(C)C (stereo not given in full),BWLmax,[30],<0%
same,BWLmax,[31],<0%
same,BWLmax,[32],0.3%
same,BWLmax,[33],4.5%
same,BWLmax,[34],<0%
same,IR,[35],94.4%
same,IR,[36],84.9%
same,IR,[37],95.6%
same,IR,[38],93.3%
same,IR,[39],97.3%
same,IR,[40],62.4%
same,IR,[41],87.2%
same,IR,[42],27.2%
same,BWLmax,[43],3.7%
same,BWLmax,[44],<0%
same,BWLmax,[45],<0%
same,ED50,[46],18 mg/kg
same,ED50,[47],27 mg/kg
same,Mortality,[48],0
same,Mortality,[49],0
same,Mortality,[50],0
same,Mortality,[51],0
same,Mortality,[52],0
same,Mortality,[53],0
same,Mortality,[54],0
same,Mortality,[55],0
same,GI50,[25],0.18 ng/mL
same,GI50,[26],0.26 ng/mL
same,GI50,[27],19.3 ng/mL
same,GI50,[28],0.13 ng/mL
same,GI50,[29],2.43 ng/mL
